In PubChem BioAssay (NCI):
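Growth conditions: 96-well plates. Treatment: test compound, 48 hours, 5 concentrations. Analysis: linear interpolation between bracketing concentrations; unreached endpoints set to highest concentration. At the TGI there is no net growth.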

Assays:
Assay in all cases: NCI-60 cell line screen, 48 h
[1] = test system: 786-0 renal
[2] = test system: A498 renal
[3] = test system: A549 NSCLC
[4] = test system: ACHN renal
[5] = test system: BT-549 breast
[6] = test system: CAKI-1 renal
[7] = test system: CCRF-CEM leukemia
[8] = test system: COLO 205 colon
[9] = test system: DU-145 prostate
[10] = test system: EKVX NSCLC
[11] = test system: HCC-2998 colon
[12] = test system: HCT-116 colon
[13] = test system: HCT-15 colon
[14] = test system: HOP-62 NSCLC
[15] = test system: HOP-92 NSCLC
[16] = test system: HS 578T breast
[17] = test system: HT29 colon
[18] = test system: IGROV1 ovarian
[19] = test system: KM12 colon
[20] = test system: LOX IMVI melanoma
[21] = test system: M14 melanoma
[22] = test system: MALME-3M melanoma
[23] = test system: MCF7 breast
[24] = test system: MDA-MB-231 breast
[25] = test system: MDA-MB-435
[26] = test system: MOLT-4 leukemia
[27] = test system: NCI-H226 lung
[28] = test system: NCI-H23 lung
[29] = test system: NCI-H522 lung
[30] = test system: NCI/ADR-RES ovarian
[31] = test system: OVCAR-3 ovarian
[32] = test system: OVCAR-4 ovarian
[33] = test system: OVCAR-5 ovarian
[34] = test system: OVCAR-8 ovarian
[35] = test system: PC-3 prostate
[36] = test system: RPMI-8226 leukemia
[37] = test system: RXF 393 renal
[38] = test system: SF-268 CNS
[39] = test system: SF-295 CNS
[40] = test system: SF-539 CNS
[41] = test system: SK-MEL-2 melanoma
[42] = test system: SK-MEL-28 melanoma
[43] = test system: SK-MEL-5 melanoma
[44] = test system: SK-OV-3 ovarian
[45] = test system: SN12C renal
[46] = test system: SNB-19 CNS
[47] = test system: SNB-75 CNS
[48] = test system: SR leukemia
[49] = test system: SW-620 colon
[50] = test system: T-47D breast
[51] = test system: TK-10 renal
[52] = test system: U251 CNS
[53] = test system: UACC-257 melanoma
[54] = test system: UACC-62 melanoma

Measured: TGI

COC(=O)/C(=C(/C)c1ccco1)P(=O)(OC)OC
> 100 µM: all assays above
